{"source": "patent US20210116454A1", "about": "“METHODS FOR TREATING A HEMATOLOGICAL CANCER AND THE USE OF COMPANION BIOMARKERS FOR 2-(2,6-DIOXOPIPERIDIN-3-YL)-4-((2-FLUORO-4-((3-MORPHOLINOAZETIDIN-1-YL)METHYL)BENZYL)AMINO)ISOINDOLINE-1,3-DIONE” (CELGENE CORPORATION, priority 2019, published 2021)", "experiment_in_all_cases": "5-day viable cell number and apoptosis (7-AAD exclusion/Annexin V flow cytometry)", "assay_type_in_all_cases": "cell-based", "key": {"HT": {"tested_on": "HT", "conditions": "Homo sapiens; HT cells (Table 3); read-out: IC50", "excerpt": "(§1) The DLBCL panel includes seven cell lines classified as activated B-cell (ABC) subtype, thirteen cell lines classified as the germinal center B-cell (GCB) subtype, and three cell lines classified as primary mediastinal B-cell lymphoma (PMBL). […] The translocation of MYC, BCL6, or BCL2 to an IG locus usually leads to high levels of mRNA and protein due to the active transcription driven by a constitutively active IG promoter. […] Expressions of CRBN protein and known substrates, Ikaros, Aiolos, and ZFP91 were also evaluated (FIG. 1, panels B and C).\n(§2) The panel of cell lines were treated with increasing doses of compounds for five days, at which time the number of viable cells was measured and the amount of apoptosis was determined by 7-AAD exclusion and Annexin V staining using flow cytometry."}, "SU-DHL-8": {"tested_on": "SU-DHL-8", "conditions": "Homo sapiens; SU-DHL-8 cells (Table 3); read-out: IC50", "excerpt": "as §1, §2"}, "OCI-LY-7": {"tested_on": "OCI-LY-7", "conditions": "Homo sapiens, OCI-Ly7; OCI-LY-7 cells (Table 3); read-out: IC50", "excerpt": "as §1, §2"}, "Pfeiffer": {"tested_on": "Pfeiffer", "conditions": "Homo sapiens; Pfeiffer cells (Table 3)", "excerpt": "as §1, §2"}, "U2940": {"tested_on": "U2940", "conditions": "Homo sapiens, U-2940; U2940 cells (Table 3); read-out: IC50", "excerpt": "as §1, §2"}, "SU-DHL-16": {"tested_on": "SU-DHL-16", "conditions": "Homo sapiens; SU-DHL-16 cells (Table 3); read-out: IC50", "excerpt": "as §1, §2"}, "DB": {"tested_on": "DB", "conditions": "Homo sapiens; DB cells (Table 3)", "excerpt": "as §1, §2"}, "TMD8": {"tested_on": "TMD8", "conditions": "Homo sapiens; TMD8 cells (Table 3); read-out: IC50", "excerpt": "as §1, §2"}, "OCI-LY-19": {"tested_on": "OCI-LY-19", "conditions": "Homo sapiens, OCI-LY19; OCI-LY-19 cells (Table 3); read-out: IC50", "excerpt": "as §1, §2"}, "Toledo": {"tested_on": "Toledo", "conditions": "Homo sapiens; Toledo cells (Table 3); read-out: IC50", "excerpt": "as §1, §2"}, "SU-DHL-10": {"tested_on": "SU-DHL-10", "conditions": "Homo sapiens, SU-DHL10; SU-DHL-10 cells (Table 3); read-out: IC50", "excerpt": "as §1, §2"}, "OCI-LY-3": {"tested_on": "OCI-LY-3", "conditions": "Homo sapiens, OCI-Ly3; OCI-LY-3 cells (Table 3)", "excerpt": "as §1, §2"}, "RC-K8": {"tested_on": "RC-K8", "conditions": "Homo sapiens, RCK8; RC-K8 cells (Table 3); read-out: IC50", "excerpt": "as §1, §2"}, "KARPAS-422": {"tested_on": "KARPAS-422", "conditions": "Homo sapiens; KARPAS-422 cells (Table 3); read-out: IC50", "excerpt": "as §1, §2"}, "RIVA": {"tested_on": "RIVA", "conditions": "RIVA cells (Table 3); read-out: IC50", "excerpt": "as §1, §2"}, "KARPAS-1106P": {"tested_on": "KARPAS-1106P", "conditions": "Homo sapiens; KARPAS-1106P cells (Table 3); read-out: IC50", "excerpt": "as §1, §2"}, "Farage": {"tested_on": "Farage", "conditions": "Farage cells (Table 3); read-out: IC50", "excerpt": "as §1, §2"}, "SU-DHL-4": {"tested_on": "SU-DHL-4", "conditions": "Homo sapiens; SU-DHL-4 cells (Table 3); read-out: IC50", "excerpt": "as §1, §2"}, "SU-DHL-2": {"tested_on": "SU-DHL-2", "conditions": "Homo sapiens; SU-DHL-2 cells (Table 3); read-out: IC50", "excerpt": "as §1, §2"}}, "data": [{"smiles": "COc1cccc2c1C(=O)c1c(O)c3c(c(O)c1C2=O)C[C@@](O)(C(=O)CO)C[C@@H]3O[C@H]1C[C@H](N)[C@H](O)[C@H](C)O1", "note": "[Doxorubicin, reference compound]", "values": [{"measurement": "IC50", "setting": "HT", "value": 2000, "unit": "nM"}, {"measurement": "IC50", "setting": "SU-DHL-8", "value": 600, "unit": "nM"}, {"measurement": "IC50", "setting": "OCI-LY-7", "value": 5000, "unit": "nM"}, {"measurement": "IC50", "setting": "Pfeiffer", "value": 3000, "unit": "nM"}, {"measurement": "IC50", "setting": "U2940", "value": 2000, "unit": "nM"}, {"measurement": "IC50", "setting": "SU-DHL-16", "value": 1500, "unit": "nM"}, {"measurement": "IC50", "setting": "DB", "value": 3800, "unit": "nM"}, {"measurement": "IC50", "setting": "TMD8", "value": 700, "unit": "nM"}, {"measurement": "IC50", "setting": "OCI-LY-19", "value": 2000, "unit": "nM"}, {"measurement": "IC50", "setting": "Toledo", "value": 4000, "unit": "nM"}, {"measurement": "IC50", "setting": "SU-DHL-10", "value": 600, "unit": "nM"}, {"measurement": "IC50", "setting": "OCI-LY-3", "value": 11600, "unit": "nM"}, {"measurement": "IC50", "setting": "RC-K8", "value": 3500, "unit": "nM"}, {"measurement": "IC50", "setting": "KARPAS-422", "value": 1000, "unit": "nM"}, {"measurement": "IC50", "setting": "RIVA", "value": 5500, "unit": "nM"}, {"measurement": "IC50", "setting": "KARPAS-1106P", "value": 1700, "unit": "nM"}, {"measurement": "IC50", "setting": "Farage", "value": 1200, "unit": "nM"}, {"measurement": "IC50", "setting": "SU-DHL-4", "value": 1000, "unit": "nM"}, {"measurement": "IC50", "setting": "SU-DHL-2", "value": 1300, "unit": "nM"}]}]}
